Reference: the Kinase Knowledgebase extract (Sharma et al. 2016)

Biological target: CDK2 (UniProt P24941)
Test: Enzyme Assay

| Structure (SMILES) | IC50 |
| --- | --- |
| O=C(NCc1ccncc1)c1n[nH]cc1NC(=O)c1c(F)cccc1F | < 20 µM |
| COc1ccccc1CNC(=O)c1n[nH]cc1NC(=O)c1c(F)cccc1F | < 20 µM |
| CN1CCC(NC(=O)c2n[nH]cc2NC(=O)c2cc(Cl)ccc2Cl)CC1 | < 20 µM |
| CCOc1ccccc1C(=O)Nc1c[nH]nc1C(=O)NC1CCNCC1 | < 20 µM |
| COCCN1CCC(NC(=O)c2n[nH]cc2NC(=O)c2c(Cl)cccc2Cl)CC1 | < 20 µM |
| O=C(NC1CCC(N2CCSCC2)CC1)c1n[nH]cc1NC(=O)c1c(F)cccc1F (stereo not given) | < 20 µM |
| O=C(NC1CCN(c2ccccn2)CC1)c1n[nH]cc1NC(=O)c1c(F)cccc1F | < 20 µM |
| O=C(NCc1cccnc1)c1n[nH]cc1NC(=O)c1c(F)cccc1F | < 20 µM |
| O=C(Nc1c[nH]nc1C(=O)NC1CCNCC1)c1cc(-c2ccccc2)cs1 | < 20 µM |
| N[C@H]1CC[C@H](NC(=O)c2n[nH]cc2NC(=O)c2c(F)cccc2F)CC1 | < 20 µM |
| O=C(Nc1c[nH]nc1C(=O)N[C@H]1CC[C@H](O)CC1)c1cccc2c1OCCO2 | < 20 µM |
| CN1CCC(NC(=O)Nc2c[nH]nc2C(=O)N[C@H]2CC[C@H](O)CC2)CC1 | < 20 µM |
| O=C(N[C@H]1CC[C@H](O)CC1)c1n[nH]cc1NC(=O)N1CCOCC1 | < 750 µM |
| O=C(NC1CCNCC1)c1n[nH]cc1NC(=O)c1c(F)cc(F)cc1F | < 20 µM |
| O=C(NC1CCNCC1)c1n[nH]cc1NC(=O)c1c(F)cccc1Cl | < 20 µM |
| O=C(Nc1c[nH]nc1C(=O)NCC1CC1)c1cccc2c1OCCO2 | < 20 µM |
| O=C(Nc1c[nH]nc1C(=O)NC1CCNCC1)c1ccc(Cl)cc1 | < 20 µM |
| O=C(N[C@H]1CC[C@H](N2CCOCC2)CC1)c1n[nH]cc1NC(=O)c1c(F)cccc1F | < 20 µM |
| CC(C)(C)C1CCC(NC(=O)c2n[nH]cc2NC(=O)c2cc(F)cc(F)c2)CC1 (stereo not given) | < 750 µM |
| CC(C)(C)C1CCC(NC(=O)c2n[nH]cc2NC(=O)c2ccccc2)CC1 (stereo not given) | < 750 µM |
| CC(C)(C)OC(=O)N1CCC(NC(=O)c2n[nH]cc2NC(=O)c2ccc(F)cc2)CC1 | < 20 µM |
| O=C(Nc1c[nH]nc1C(=O)NC1CCNCC1)c1ccc(OC(F)F)cc1 | < 20 µM |
| CC(C)(C)CNC(=O)Nc1c[nH]nc1C(=O)N[C@H]1CC[C@H](O)CC1 | < 20 µM |

| Structure (SMILES) | IC50 |
| --- | --- |
| CC(C)(C)N1CCC(NC(=O)c2n[nH]cc2NC(=O)c2c(F)cccc2F)CC1 | < 20 µM |
| COc1ccc(F)cc1C(=O)Nc1c[nH]nc1C(=O)NC1CCN(C)CC1 | < 20 µM |
| O=C(NC1CCN(c2cccc(Cl)n2)CC1)c1n[nH]cc1NC(=O)c1c(F)cccc1F | < 20 µM |
| O=C(N[C@@H]1CCNC1)c1n[nH]cc1NC(=O)c1c(F)cccc1F | < 20 µM |
| CN1CCC(NC(=O)c2n[nH]cc2NC(=O)c2c(Cl)cccc2Cl)CC1 | < 20 µM |
| O=C(N[C@H]1CC[C@H](N2CCS(=O)(=O)CC2)CC1)c1n[nH]cc1NC(=O)c1c(F)cccc1F | < 20 µM |
| O=C(N[C@H]1CC[C@@H](N2CCOCC2)CC1)c1n[nH]cc1NC(=O)c1c(F)cccc1F | < 20 µM |
| COc1cccc(F)c1C(=O)Nc1c[nH]nc1C(=O)NC1CCN(C)CC1 | < 20 µM |
| O=C(N[C@H]1CC[C@@H](NC2CCOCC2)CC1)c1n[nH]cc1NC(=O)c1c(F)cccc1F | < 20 µM |
| O=C(Nc1c[nH]nc1C(=O)NCC1CC1)c1ccc(N2CCOCC2)cc1Cl | < 20 µM |
| COc1cccc(F)c1C(=O)Nc1c[nH]nc1C(=O)N[C@H]1CC[C@H](O)CC1 | < 20 µM |
| O=C(Nc1c[nH]nc1C(=O)NC1CCNCC1)c1ccccc1N1CCOCC1 | < 20 µM |
| CN1CCC(NC(=O)c2n[nH]cc2NC(=O)c2ccccc2OC(C)(C)C)CC1 | < 20 µM |
| Cc1cc(CNC(=O)c2n[nH]cc2NC(=O)c2c(F)cccc2F)no1 | < 20 µM |
| CN1CCC(C(=O)Nc2c[nH]nc2C(=O)NCC2CC2)CC1 | < 20 µM |
| O=C(NC1CCN(CC2CCOC2)CC1)c1n[nH]cc1NC(=O)c1c(F)cccc1F (stereo not given) | < 20 µM |
| COc1cccc(F)c1C(=O)Nc1c[nH]nc1C(=O)NC1CCN(C(=O)OC(C)(C)C)CC1 | < 20 µM |
| O=C(NCc1ccco1)c1n[nH]cc1NC(=O)c1c(F)cccc1F | < 20 µM |
| COc1cccc(F)c1C(=O)Nc1c[nH]nc1C(=O)NC1CCC(C(C)(C)C)CC1 (stereo not given) | < 20 µM |
| O=C(NC1CCN(CC(F)(F)F)CC1)c1n[nH]cc1NC(=O)c1c(F)cccc1F | < 20 µM |
| O=C(NCC1CCNCC1)c1n[nH]cc1NC(=O)c1c(F)cccc1F | < 20 µM |
| CN1CCN([C@H]2CC[C@H](NC(=O)c3n[nH]cc3NC(=O)c3c(F)cccc3F)CC2)CC1 | < 20 µM |
| O=C(Nc1c[nH]nc1C(=O)NC1CCNCC1)c1ccccc1OC(F)(F)F | < 20 µM |

| Structure (SMILES) | IC50 |
| --- | --- |
| CO[C@H]1CC[C@H](NC(=O)c2n[nH]cc2NC(=O)c2c(Cl)cccc2Cl)CC1 | < 20 µM |
| CC(C)N1CCC(NC(=O)c2n[nH]cc2NC(=O)c2c(F)cccc2F)CC1 | < 20 µM |
| O=C(N[C@H]1CCCNC1)c1n[nH]cc1NC(=O)c1c(F)cccc1F | < 20 µM |
| O=C(N[C@H]1CC[C@H](O)CC1)c1n[nH]cc1NC(=O)c1c(F)cccc1Cl | < 20 µM |
| O=C(NC[C@H]1CC[C@H](NC(=O)c2n[nH]cc2NC(=O)c2c(F)cccc2F)CC1)OCc1ccccc1 | < 20 µM |
| NC[C@H]1CC[C@H](NC(=O)c2n[nH]cc2NC(=O)c2c(F)cccc2F)CC1 | < 20 µM |
| O=C(NC1CCN(CC2CC2)CC1)c1n[nH]cc1NC(=O)c1c(F)cccc1F | < 20 µM |
| O=C(Nc1c[nH]nc1C(=O)NC1CCNCC1)c1ccccc1OC(F)F | < 20 µM |
| O=C(NCc1ccccc1)Nc1c[nH]nc1C(=O)N[C@H]1CC[C@H](O)CC1 | < 750 µM |
| O=C(Nc1c[nH]nc1C(=O)NC1CCNCC1)c1ccccc1Br | < 20 µM |
| CC(NC(=O)c1n[nH]cc1NC(=O)c1c(F)cccc1F)c1ccccc1 (stereo not given) | < 20 µM |
| CN1CCC(NC(=O)c2n[nH]cc2NC(=O)c2cccc3c2OCCO3)CC1 | < 20 µM |
| COc1ccccc1C(=O)Nc1c[nH]nc1C(=O)N[C@H]1CC[C@H](O)CC1 | < 20 µM |
| O=C(N[C@H]1CCCNC1)c1n[nH]cc1NC(=O)c1c(Cl)cccc1Cl | < 20 µM |
| CN1CCC(NC(=O)c2n[nH]cc2NC(=O)c2c(F)cccc2Cl)CC1 | < 20 µM |
| CS(=O)(=O)NC[C@H]1CC[C@H](NC(=O)c2n[nH]cc2NC(=O)c2c(F)cccc2F)CC1 | < 20 µM |
| CN(C)[C@H]1CC[C@H](NC(=O)c2n[nH]cc2NC(=O)c2c(F)cccc2F)CC1 | < 20 µM |
| CN1CCN([C@H]2CC[C@@H](NC(=O)c3n[nH]cc3NC(=O)c3c(F)cccc3F)CC2)CC1 | < 20 µM |
| CC(C)(C)C1CCC(NC(=O)c2n[nH]cc2NC(=O)c2ccc(Cl)cc2)CC1 (stereo not given) | < 750 µM |
| COCCN1CCC(NC(=O)c2n[nH]cc2NC(=O)c2c(F)cccc2F)CC1 | < 20 µM |
| O=C(NCC1CCCO1)c1n[nH]cc1NC(=O)c1c(F)cccc1F (stereo not given) | < 20 µM |
| O=C1CC[C@H](NC(=O)c2n[nH]cc2NC(=O)c2c(F)cccc2F)CN1 | < 20 µM |
| COc1cccc(F)c1C(=O)Nc1c[nH]nc1C(=O)NC1CCNCC1 | < 20 µM |

| Structure (SMILES) | IC50 |
| --- | --- |
| O=C(N[C@H]1CC[C@H](NC2CCOCC2)CC1)c1n[nH]cc1NC(=O)c1c(F)cccc1F | < 20 µM |
| CC(C)(C)NC(=O)Nc1c[nH]nc1C(=O)NCC1CC1 | < 20 µM |
| O=C(Nc1ccccc1)Nc1c[nH]nc1C(=O)N[C@H]1CC[C@H](O)CC1 | < 20 µM |
| CC(C)(C)OC(=O)N1CCC(NC(=O)c2n[nH]cc2NC(=O)c2c(F)cc(F)cc2F)CC1 | < 20 µM |
| CC(C)(C)C1CCC(NC(=O)c2n[nH]cc2NC(=O)c2ccc(CN3CCCC3)o2)CC1 (stereo not given) | < 20 µM |
| O=C(Nc1c[nH]nc1C(=O)N[C@H]1CC[C@H](O)CC1)Nc1c(F)cccc1F | < 20 µM |
| Cc1nn(C)c(C)c1CNC(=O)c1n[nH]cc1NC(=O)c1c(F)cccc1F | < 20 µM |
| O=C(Nc1c[nH]nc1C(=O)NC1CCNCC1)c1ccccc1 | < 750 µM |
| CN1CCC(N2CCC(NC(=O)c3n[nH]cc3NC(=O)c3c(F)cccc3F)CC2)CC1 | < 20 µM |
| O=C(N[C@H]1CC[C@H](O)CC1)c1n[nH]cc1NC(=O)c1c(F)cccc1F | < 20 µM |
| CC(C)(C)C1CCC(NC(=O)c2n[nH]cc2NC(=O)c2ccc(CN3CCOCC3)o2)CC1 (stereo not given) | < 20 µM |
| O=C(Nc1c[nH]nc1C(=O)NC1CCNCC1)c1ccc(F)cc1 | < 750 µM |
| O=C(NC1CCNCC1)c1n[nH]cc1NC(=O)c1c(Cl)cncc1Cl | < 20 µM |
| CC(C)(C)C1CCC(NC(=O)c2n[nH]cc2NC(=O)c2ccc(F)cc2)CC1 (stereo not given) | < 750 µM |
| CO[C@H]1CC[C@H](NC(=O)c2n[nH]cc2NC(=O)c2c(F)cccc2F)CC1 | < 20 µM |
| COc1ccccc1C(=O)Nc1c[nH]nc1C(=O)NC1CCNCC1 | < 20 µM |
| Cc1onc(-c2ccccc2)c1C(=O)Nc1c[nH]nc1C(=O)NC1CCNCC1 | < 750 µM |
| CN1CCC(NC(=O)c2n[nH]cc2NC(=O)c2cccc(Cl)c2Cl)CC1 | < 20 µM |
| CC(C)(C)OC(=O)N1CCC(NC(=O)c2n[nH]cc2NC(=O)c2ccccc2)CC1 | < 20 µM |
| CS(=O)(=O)N1CCC(NC(=O)c2n[nH]cc2NC(=O)c2c(F)cccc2F)CC1 | < 20 µM |
| CC1CCC(NC(=O)c2n[nH]cc2NC(=O)c2c(F)cccc2F)CC1 (stereo not given) | < 20 µM |

Biological target: CDK2 (UniProt P24941)
Test: Enzyme Assay
Remark: another data set of the same source

| Structure (SMILES) | IC50 |
| --- | --- |
| O=C(NCc1ccncc1)c1n[nH]cc1NC(=O)c1c(F)cccc1F | < 20 µM |
| COc1ccccc1CNC(=O)c1n[nH]cc1NC(=O)c1c(F)cccc1F | < 20 µM |
| Cc1cc(CNC(=O)c2n[nH]cc2NC(=O)c2c(F)cccc2F)no1 | < 20 µM |
| O=C(NCC1CCCO1)c1n[nH]cc1NC(=O)c1c(F)cccc1F (stereo not given) | < 20 µM |
| Cc1nn(C)c(C)c1CNC(=O)c1n[nH]cc1NC(=O)c1c(F)cccc1F | < 20 µM |
